Source: US4228292A, “N-Substituted benzothiazolines and benzoxazolines and their use as herbicides and plant growth regulants” (Monsanto Company, priority 1978, dated 1980)

Assays:
Format in all cases: in vivo
Rice [1] = assay: pre-emergent herbicidal test; settings: O
Procedure: (§1) The pre-emergent test was conducted as follows:
(§2) A good grade of top soil was placed in aluminum pans and compactd to a depth of 0.95 to 1.27 cm. from the top of the pan. On the top of the soil was placed a predetermined number of seeds or vegetative propagules of various plant species. The soil required to level fill the pans after seeding or adding vegetative propagules was weighed into a pan. A known amount of the herbicidal active ingredient applied in a solvent or as a wettable powder and the soil were thoroughly mixed, and used as a cover layer for prepared pans. After treatment the pans were moved into a greenhouse bench where they were watered from below as needed to give adequate moisture for germination and growth.
(§3) A herbicidal rating code was used to signify the extent of phytotoxicity of each species. The ratings are defined as follows: […]

Hemp Sesbania [2] = assay: pre-emergent herbicidal test; settings: R
Procedure: as §1, §2, §3

Sugar Beet [3] = assay: pre-emergent herbicidal test; settings: M
Procedure: as §1, §2, §3

Wheat [4] = assay: pre-emergent herbicidal test; settings: N
Procedure: as §1, §2, §3

Sorghum [5] = assay: pre-emergent herbicidal test; settings: P
Procedure: as §1, §2, §3

Soybean [6] = assay: pre-emergent herbicidal test; settings: L
Procedure: as §1, §2, §3

Crabgrass [7] = assay: pre-emergent herbicidal test; settings: T
Procedure: as §1, §2, §3

Panicum Spp [8] = assay: pre-emergent herbicidal test; settings: S
Procedure: as §1, §2, §3

Wild Buckwheat [9] = assay: pre-emergent herbicidal test; settings: Q
Procedure: as §1, §2, §3

Rice [10] = assay: post-emergent herbicidal test; settings: O, 4 WAT
Procedure: (§4) The post-emergent tests were conducted as follows:
(§5) The herbicidal active ingredients are applied in spray form to two or three-week old specimens of various plant species. The spray, a solution or wettable powder suspension containing the appropriate rate of herbicidal active ingredient to give the desired test rate and a surfactant, is applied to the plants. The treated plants are placed in a greenhouse and approximately two or four weeks later the effects are observed and recorded. The results are shown in Tables IX and X in which the post-emergent herbicidal rating code is as follows: […]

Hemp Sesbania [11] = assay: post-emergent herbicidal test; settings: R, 4 WAT
Procedure: as §4, §5

Sugar Beet [12] = assay: post-emergent herbicidal test; settings: M, 4 WAT
Procedure: as §4, §5

Wheat [13] = assay: post-emergent herbicidal test; settings: N, 4 WAT
Procedure: as §4, §5

Sorghum [14] = assay: post-emergent herbicidal test; settings: P, 4 WAT
Procedure: as §4, §5

Soybean [15] = assay: post-emergent herbicidal test; settings: L, 4 WAT
Procedure: as §4, §5

Crabgrass [16] = assay: post-emergent herbicidal test; settings: T, 4 WAT
Procedure: as §4, §5

Panicum Spp [17] = assay: post-emergent herbicidal test; settings: S, 4 WAT
Procedure: as §4, §5

Wild Buckwheat [18] = assay: post-emergent herbicidal test; settings: Q, 4 WAT
Procedure: as §4, §5
Also: ranges in brackets are in %.

CCOC(=N)Cn1c(=O)sc2ccccc21 [Compound 25]
pre-emergent herbicidal rating (Rice [1]; 0.056 kg/h, 2 WAT): 0 (0-24)
pre-emergent herbicidal rating (Rice [1]; 0.28 kg/h, 2 WAT): 0 (0-24)
pre-emergent herbicidal rating (Rice [1]; 1.12 kg/h, 4 WAT): 0 (0-24)
pre-emergent herbicidal rating (Rice [1]; 5.6 kg/h, 4 WAT): 1 (25-49)
pre-emergent herbicidal rating (Hemp Sesbania [2]; 0.056 kg/h, 2 WAT): 0 (0-24)
pre-emergent herbicidal rating (Hemp Sesbania [2]; 0.28 kg/h, 2 WAT): 0 (0-24)
pre-emergent herbicidal rating (Hemp Sesbania [2]; 1.12 kg/h, 4 WAT): 2 (50-74)
pre-emergent herbicidal rating (Hemp Sesbania [2]; 5.6 kg/h, 4 WAT): 3 (75-100)
pre-emergent herbicidal rating (Sugar Beet [3]; 0.056 kg/h, 2 WAT): 0 (0-24)
pre-emergent herbicidal rating (Sugar Beet [3]; 0.28 kg/h, 2 WAT): 1 (25-49)
pre-emergent herbicidal rating (Sugar Beet [3]; 1.12 kg/h, 4 WAT): 1 (25-49)
pre-emergent herbicidal rating (Sugar Beet [3]; 5.6 kg/h, 4 WAT): 3 (75-100)
pre-emergent herbicidal rating (Wheat [4]; 0.056 kg/h, 2 WAT): 0 (0-24)
pre-emergent herbicidal rating (Wheat [4]; 0.28 kg/h, 2 WAT): 0 (0-24)
pre-emergent herbicidal rating (Wheat [4]; 1.12 kg/h, 4 WAT): 0 (0-24)
pre-emergent herbicidal rating (Wheat [4]; 5.6 kg/h, 4 WAT): 1 (25-49)
pre-emergent herbicidal rating (Sorghum [5]; 0.056 kg/h, 2 WAT): 0 (0-24)
pre-emergent herbicidal rating (Sorghum [5]; 0.28 kg/h, 2 WAT): 0 (0-24)
pre-emergent herbicidal rating (Sorghum [5]; 1.12 kg/h, 4 WAT): 0 (0-24)
pre-emergent herbicidal rating (Sorghum [5]; 5.6 kg/h, 4 WAT): 0 (0-24)
pre-emergent herbicidal rating (Soybean [6]; 0.056 kg/h, 2 WAT): 0 (0-24)
pre-emergent herbicidal rating (Soybean [6]; 0.28 kg/h, 2 WAT): 1 (25-49)
pre-emergent herbicidal rating (Soybean [6]; 1.12 kg/h, 4 WAT): 2 (50-74)
pre-emergent herbicidal rating (Soybean [6]; 5.6 kg/h, 4 WAT): 3 (75-100)
pre-emergent herbicidal rating (Crabgrass [7]; 0.056 kg/h, 2 WAT): 0 (0-24)
pre-emergent herbicidal rating (Crabgrass [7]; 0.28 kg/h, 2 WAT): 0 (0-24)
pre-emergent herbicidal rating (Crabgrass [7]; 1.12 kg/h, 4 WAT): 0 (0-24)
pre-emergent herbicidal rating (Crabgrass [7]; 5.6 kg/h, 4 WAT): 2 (50-74)
pre-emergent herbicidal rating (Panicum Spp [8]; 0.056 kg/h, 2 WAT): 0 (0-24)
pre-emergent herbicidal rating (Panicum Spp [8]; 0.28 kg/h, 2 WAT): 0 (0-24)
pre-emergent herbicidal rating (Panicum Spp [8]; 1.12 kg/h, 4 WAT): 0 (0-24)
pre-emergent herbicidal rating (Panicum Spp [8]; 5.6 kg/h, 4 WAT): 0 (0-24)
pre-emergent herbicidal rating (Wild Buckwheat [9]; 0.056 kg/h, 2 WAT): 0 (0-24)
pre-emergent herbicidal rating (Wild Buckwheat [9]; 0.28 kg/h, 2 WAT): 0 (0-24)
pre-emergent herbicidal rating (Wild Buckwheat [9]; 1.12 kg/h, 4 WAT): 1 (25-49)
pre-emergent herbicidal rating (Wild Buckwheat [9]; 5.6 kg/h, 4 WAT): 2 (50-74)

CCCOC(=N)Cn1c(=O)sc2ccccc21 [Compound 30]
pre-emergent herbicidal rating (Rice [1]; 0.28 kg/h, 2 WAT): 0 (0-24)
pre-emergent herbicidal rating (Rice [1]; 1.12 kg/h, 4 WAT): 0 (0-24)
pre-emergent herbicidal rating (Rice [1]; 5.6 kg/h, 4 WAT): 1 (25-49)
pre-emergent herbicidal rating (Hemp Sesbania [2]; 0.28 kg/h, 2 WAT): 1 (25-49)
pre-emergent herbicidal rating (Hemp Sesbania [2]; 1.12 kg/h, 4 WAT): 2 (50-74)
pre-emergent herbicidal rating (Hemp Sesbania [2]; 5.6 kg/h, 4 WAT): 3 (75-100)
pre-emergent herbicidal rating (Sugar Beet [3]; 0.28 kg/h, 2 WAT): 1 (25-49)
pre-emergent herbicidal rating (Sugar Beet [3]; 1.12 kg/h, 4 WAT): 1 (25-49)
pre-emergent herbicidal rating (Sugar Beet [3]; 5.6 kg/h, 4 WAT): 3 (75-100)
pre-emergent herbicidal rating (Wheat [4]; 0.28 kg/h, 2 WAT): 0 (0-24)
pre-emergent herbicidal rating (Wheat [4]; 1.12 kg/h, 4 WAT): 0 (0-24)
pre-emergent herbicidal rating (Wheat [4]; 5.6 kg/h, 4 WAT): 1 (25-49)
pre-emergent herbicidal rating (Sorghum [5]; 0.28 kg/h, 2 WAT): 0 (0-24)
pre-emergent herbicidal rating (Sorghum [5]; 1.12 kg/h, 4 WAT): 0 (0-24)
pre-emergent herbicidal rating (Sorghum [5]; 5.6 kg/h, 4 WAT): 0 (0-24)
pre-emergent herbicidal rating (Soybean [6]; 0.28 kg/h, 2 WAT): 0 (0-24)
pre-emergent herbicidal rating (Soybean [6]; 1.12 kg/h, 4 WAT): 1 (25-49)
pre-emergent herbicidal rating (Soybean [6]; 5.6 kg/h, 4 WAT): 3 (75-100)
pre-emergent herbicidal rating (Crabgrass [7]; 0.28 kg/h, 2 WAT): 0 (0-24)
pre-emergent herbicidal rating (Crabgrass [7]; 1.12 kg/h, 4 WAT): 2 (50-74)
pre-emergent herbicidal rating (Crabgrass [7]; 5.6 kg/h, 4 WAT): 3 (75-100)
pre-emergent herbicidal rating (Panicum Spp [8]; 0.28 kg/h, 2 WAT): 0 (0-24)
pre-emergent herbicidal rating (Panicum Spp [8]; 1.12 kg/h, 4 WAT): 0 (0-24)
pre-emergent herbicidal rating (Panicum Spp [8]; 5.6 kg/h, 4 WAT): 0 (0-24)
pre-emergent herbicidal rating (Wild Buckwheat [9]; 0.28 kg/h, 2 WAT): 0 (0-24)
pre-emergent herbicidal rating (Wild Buckwheat [9]; 1.12 kg/h, 4 WAT): 1 (25-49)
pre-emergent herbicidal rating (Wild Buckwheat [9]; 5.6 kg/h, 4 WAT): 2 (50-74)

COC(=N)Cn1c(=O)sc2ccccc21 [Compound 37]
post-emergent herbicidal rating (Rice [10]; 1.12 kg/h): 0 (0-24)
post-emergent herbicidal rating (Rice [10]; 5.6 kg/h): 0 (0-24)
post-emergent herbicidal rating (Hemp Sesbania [11]; 1.12 kg/h): 2 (50-74)
post-emergent herbicidal rating (Hemp Sesbania [11]; 5.6 kg/h): 3 (75-99)
post-emergent herbicidal rating (Sugar Beet [12]; 1.12 kg/h): 2 (50-74)
post-emergent herbicidal rating (Sugar Beet [12]; 5.6 kg/h): 2 (50-74)
post-emergent herbicidal rating (Wheat [13]; 1.12 kg/h): 0 (0-24)
post-emergent herbicidal rating (Wheat [13]; 5.6 kg/h): 0 (0-24)
post-emergent herbicidal rating (Sorghum [14]; 1.12 kg/h): 0 (0-24)
post-emergent herbicidal rating (Sorghum [14]; 5.6 kg/h): 0 (0-24)
post-emergent herbicidal rating (Soybean [15]; 1.12 kg/h): 1 (25-49)
post-emergent herbicidal rating (Soybean [15]; 5.6 kg/h): 2 (50-74)
post-emergent herbicidal rating (Crabgrass [16]; 1.12 kg/h): 0 (0-24)
post-emergent herbicidal rating (Crabgrass [16]; 5.6 kg/h): 1 (25-49)
post-emergent herbicidal rating (Panicum Spp [17]; 1.12 kg/h): 0 (0-24)
post-emergent herbicidal rating (Panicum Spp [17]; 5.6 kg/h): 0 (0-24)
post-emergent herbicidal rating (Wild Buckwheat [18]; 1.12 kg/h): 2 (50-74)
post-emergent herbicidal rating (Wild Buckwheat [18]; 5.6 kg/h): 4 (100)
